In patent US6177592A, “Compounds” (priority 1997, dated 2001):

Key:
[1] = test system: CEM-SS cells; assay: Survival rate of CEM-SS cells; type: cell-based; conditions: one day
Experimental: GM (0, 4, 8 or 16 μM) was added to 2×10^5 cell/ml of CEM-SS cells (ATCC CCL-119) and to CEM-SS cells infected with HIV-1IIIB (wherein not less than 90% of the CEM-SS cells were infected with the HIV-1IIIB; hereinafter, referred to as CEM-3B) incubation was conducted for one day, viable cell numbers and dead cell numbers were counted and survival cell rate was calculated.

[2] = test system: NIH 3T3/E7-2; assay: Colony formation of HPV16 E7-transformed NIH 3T3/E7-2 cells; type: cell-based
Experimental: (1) Transformation to Escherichia coli HB101 was conducted by control plasmid pcD2-Y expressing G418-resisting gene [Mol. Cell. Biol., volume 7, pages 2745-2752 (1987)] and plasmid pcD2-16E7 which was capable of expressing both HPV 16 type E7 and G418-resisting gene [Jpn. J. Cancer Res., volume 82, pages 1340-1343 (1991)], then incubation was conducted in an L-broth medium and plasmid was extracted from the collected cells and purified by a cesium chloride density gradient ultracentrifugation to give vector plasmid for introduction of gene.
The purified plasmid (10 μg) was introduced into NIH 3T3 cells using a cationic liposome (TransIT LT-1, manufactured by Takara Shuzo), the cells were selected at 37° C. under the condition of 5% CO2 for two weeks in a Dulbecco-modified Eagle's medium containing 10% calf serum which contained 0.4 mg/ml of G418 (Gibco) and the resulting colonies were cloned to establish each nine strains of NIH 3T3 cells into which control vector was introdcd and NIH 3T3 cells which was cancerated with HPV 16 type E7.
The cells strains into which E7 was introduced were named NIH 3T3/E7-1, NIH 3T3/E7-2, NIH 3T3/E7-3, NIH 3T3/E7-4, NIH 3T3/E7-5, NIH 3T3/E7-6, NIH 3T3/E7-7, NIH 3T3/E7-8 and NIH 3T3/E7-9. […]
A part of the suspension was taken out and cell density was counted by a Neubauer's hemocytometer. […]

[3] = test system: tumor necrosis factor; assay: TNF production from LPS-induced celiac macrophage; type: cell-based, mouse (CDF1)
Experimental: (2) Paraffin oil (Cosmo Bio) (2 ml) was intraperitoneally administered to female CDF1 mice of eight weeks age to induce celiac macrophage (M.phi.). After one week from administration of paraffin oil, 4 ml of an RPMI-1640 medium (Gibco) was intraperitoneally infused, well massaged and recovered to give celiac cells.
The celiac cells were washed with an RPMI-1640 medium twice and suspended in an PPMI1640 medium containing 10% of fetal calf serum (FCS; High-Clone) to adjust the cell concentration to 1×10^6 cells/ml. The cell solution (1 ml) prepared as such was planted on a 24-well plate and incubated in a CO2 incubator at 37° C. for two hours. Non-adhesion cells contained in the supernatant liquid after incubation was removed and the adhesion cells were used as celiac M . […]
After the incubation, 100 μl of 100 ng/ml LPS (manufactured by Sigma) was added and incubation was conducted for 24 hours more. After completion of the incubation, the supernatant liquid was recovered therefrom and the amount of TNF-a produced therein was determined using a commercially available ELISA kit (manufactured by Endogen).

[4] = test system: carrageenan-induced pedal edema; assay: Carrageenan-induced pedal edema in Lewis rats; type: in vivo; conditions: Rattus norvegicus, 3 h; oral; three hours after carrageenan; read-out: dose with significant inhibition of pedal edema
Experimental: Carrageenan-induced pedal edema models which were animal model of chronic articular rheumatism were prepared as follows using male Lewis rats [purchased from Seac-Yoshitomi when five weeks age (body weight: about 130 g) followed by subjecting to a preliminary breeding for one week at our end] and the test drugs were evaluated.
To the rats which were fasted since 18 hours before initiation of the experiment was orally administered with 10 ml/kg of GM which was prepared with distilled water (manufactured by Otsuka Pharmaceutical) to make 10 and 100 mg/ml.
After 0.5 hour from administration of the test drug, 100 μl/rat of 1% suspension of carrageenan (manufactured by Wako) in a physiologically saline solution (manufactured by Otsuka Pharmaceutical) was injected to right paw to induce pedal edema. After three hours from the carrageenan injection, volume of right paw of the rat was measured by a pedal volume measuring device (manufactured by UGO BASILE). Incidentally, the measured value was expressed by calculating the increasing rate from the right paw volume of each rat measured before the carrageenan administration.

[5] = test system: Meth A cells; assay: Meth A subcutaneous tumor growth in BALB/c mice; type: in vivo, mouse; conditions: 5 mg/kg/day s.c., five days; after two weeks
Experimental: GM was diluted with a physiological saline solution to a predetermined concentration and subjected to the following tests.
(1) Meth A cells (2×10^6 cells/mouse) were subcutaneously injected to abdomen of female BALB/c mice (body weight: about 20 g) of eight weeks age. After that, GM (5 mg/kg/day) was subcutaneously injected for consecutive five days to the same site. On the other hand, a physiological saline solution was subcutaneously injected to the control group by the same manner. After two weeks, the cancer tissues generated in abdomen of the mice were excised and their weight were measured.

## N[C@@H](CCC(=O)N[C@@H](CSC1C=C(O)C(=O)C1)C(=O)NCC(=O)O)C(=O)O (some centres unmarked) [GM, 2-hydroxy-4-glutathion-S-yl-2-cyclopenten-1-one]
[1]; 16 μM
  survival rate of cells: the survival rate of CEM-SS cells decreased as well
[1]; 4 or 8 μM
  survival rate of cells: survival rate did not decrease in CEM-SS cells
[2]; 5 μM
  sensitivity of E7-introduced cells compared with control cells (in words): high sensitivity to GM as compared with the control cells
[2]; 5 μM GM, nine days, control 67.3 ± 3.2
  Numbers of Colonies (Mean Value ± SD): 13.3 ± 3.2
[3]; Example 8
  inhibition activity of TNF production (in words): inhibition activity of the production of tumor necrosis factor
[3]; Mus musculus, Macrophage, read-out: concentration which significantly inhibited TNF production, LPS-induced, 24 hours
  minimal effective concentration: ≥ 10 µM
[4]
  minimal effective dose: ≥ 100 mg/kg
[5]
  inhibiting action to the growth of cancer (weight of cancer tissues): significant inhibiting action to the growth of cancer
